Results from patent publication US9980928B2, “Hydroxy aliphatic substituted phenyl aminoalkyl ether derivatives” (PROUS INSTITUTE FOR BIOMEDICAL RESEARCH, S.A., priority 2012, dated 2018).
Structures can show the parent of a compound that is named as a salt. Where two headings read alike, the source gives them in different places.

Assays:
[1] = molecular target: uptake of serotonin (Homo sapiens, UniProt P31645); test: Uptake inhibition of serotonin, cellular assay; assay type: cell-based
Protocol: (§1) The effect of the compounds of the present invention as inhibitors of the uptake of norepinephrine and serotonin in cellular assays at concentrations that range from […] to 1 nM is determined following the methods described in Galli, A. et al. J Exp Biol 1995, 198(Pt. 10): 2197-212 and Gu, H. et al. J Biol Chem. 1994, 269(10):7124-30.

[2] = molecular target: uptake of norepinephrine (Homo sapiens, UniProt P23975); test: Uptake inhibition of norepinephrine, cellular assay; assay type: cell-based
Sequence of uptake of norepinephrine (P23975 whole entry): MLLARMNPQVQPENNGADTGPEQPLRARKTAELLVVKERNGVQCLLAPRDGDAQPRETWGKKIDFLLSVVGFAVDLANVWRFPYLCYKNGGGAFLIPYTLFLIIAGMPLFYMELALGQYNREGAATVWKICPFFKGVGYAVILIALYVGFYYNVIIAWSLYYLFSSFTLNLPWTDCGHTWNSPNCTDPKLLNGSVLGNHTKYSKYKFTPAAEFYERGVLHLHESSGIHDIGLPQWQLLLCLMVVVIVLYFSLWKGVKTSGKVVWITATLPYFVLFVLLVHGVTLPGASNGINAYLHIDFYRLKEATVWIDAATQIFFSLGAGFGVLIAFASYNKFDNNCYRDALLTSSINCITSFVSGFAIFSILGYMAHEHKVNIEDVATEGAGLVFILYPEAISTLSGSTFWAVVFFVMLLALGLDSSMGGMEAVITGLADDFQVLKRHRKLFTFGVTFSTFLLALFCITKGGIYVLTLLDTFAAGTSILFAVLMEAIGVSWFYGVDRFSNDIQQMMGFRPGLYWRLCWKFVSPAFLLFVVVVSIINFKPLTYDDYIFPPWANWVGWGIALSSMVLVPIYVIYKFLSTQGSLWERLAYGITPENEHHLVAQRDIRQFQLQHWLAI
Protocol: as §1

[3] = molecular target: T1, serotonin transporter (Homo sapiens, UniProt P31645); test: Serotonin transporter binding radioligand inhibition ([3H]-imipramine); conditions: read-out: serotonin binding inhibition
T1 construct: expressed in transfected cells; host or cells: CHO cells
T1 sequence (P31645 whole entry): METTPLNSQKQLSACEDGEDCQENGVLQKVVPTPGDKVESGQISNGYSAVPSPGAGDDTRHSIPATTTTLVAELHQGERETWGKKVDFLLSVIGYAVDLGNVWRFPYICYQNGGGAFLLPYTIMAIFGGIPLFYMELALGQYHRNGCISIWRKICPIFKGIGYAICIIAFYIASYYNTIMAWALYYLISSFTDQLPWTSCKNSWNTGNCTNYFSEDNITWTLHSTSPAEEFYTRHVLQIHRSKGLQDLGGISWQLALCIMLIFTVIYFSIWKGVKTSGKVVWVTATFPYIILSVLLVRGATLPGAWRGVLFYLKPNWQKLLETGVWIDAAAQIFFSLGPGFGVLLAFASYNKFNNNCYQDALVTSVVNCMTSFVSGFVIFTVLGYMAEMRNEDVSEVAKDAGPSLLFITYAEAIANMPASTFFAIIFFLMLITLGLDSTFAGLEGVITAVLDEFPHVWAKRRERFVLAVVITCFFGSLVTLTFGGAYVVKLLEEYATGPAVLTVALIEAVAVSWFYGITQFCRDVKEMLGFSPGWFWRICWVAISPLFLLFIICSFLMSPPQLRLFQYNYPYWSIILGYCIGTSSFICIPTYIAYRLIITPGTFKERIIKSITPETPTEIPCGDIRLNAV
From the text: The serotonin transporter removes serotonin from the synaptic deft. The serotonin transporter terminates the effects of […], enabling its reuse by the presynaptic neuron.

[4] = molecular target: T2, norepinephrine (NE) transporter (Homo sapiens, UniProt P23975); test: Norepinephrine transporter binding radioligand inhibition ([3H]-nisoxetine); conditions: concentration 10 μM
T2 construct: expressed in transfected cells; host or cells: CHO cells
T2 sequence (P23975 whole entry): as the sequence (P23975 whole entry) above
Protocol: The norepinephrine (NE) transporter removes NE from the synaptic cleft. The NE transporter terminates the effects of […], enabling its reuse by the presynaptic neuron. The in vitro binding of the compounds of the invention to the NE transporter and the percent inhibition of control-specific binding ([^3H]-nisoxetine in human recombinant CHO cells) is determined following the method described in Pacholczyk et al., (Nature 1991, 350(6316): 350-4.

[5] = read-out: Serotonin reuptake inhibition (IC50 μM)
[6] = read-out: Norepinephrine reuptake inhibition (IC50 μM)
[7] = Serotonin reuptake inhibition (IC50 μM)
[8] = Norepinephrine reuptake inhibition (IC50 μM)

Sequence of uptake of serotonin (P31645 whole entry): as the sequence (P31645 whole entry) above

SMILES | IC50 [1, 5] [µM] | IC50 [2, 6] [µM] | inhibition at 10 µM ([3]; concentration 10 μM) [%] | inhibition at 10 µM [4] [%] | inhibition at 10 µM [3] [%] | IC50 [1, 7] [µM] | IC50 [2, 8] [µM]
CNCCC(Oc1ccc(CCO)cc1)c1ccccc1 (single isomer, unassigned) [Example 6, 2-[4-[3-(Methylamino)-1-phenylpropoxy]phenyl]ethanol ferulic acid salt] | 2.5 to 4.8 | 1.6 to 2.9 | – | – | – | – | –
CNCCC(Oc1ccc(CCO)cc1)c1ccccc1 (single isomer, unassigned) [Example 7, 2-[4-[3-(Methylamino)-1-phenylpropoxy]phenyl]ethanol caffeic acid salt] | 2.5 to 4.8 | 1.6 to 2.9 | 68 to 82 | – | – | – | –
O=C1CCCN1CCOc1ccc(CCO)cc1 [Example 1, 1-[2-[4-(2-Hydroxyethyl)phenoxy]ethyl]pyrrolidin-2-one] | 2.5 to 4.8 | 1.6 to 2.9 | 68 to 82 | 65 to 90 | – | – | –
CNCCC(Oc1ccc(CCO)cc1)c1ccccc1 [Example 5, 2-[4-[3-(Methylamino)-1-phenylpropoxy]phenyl]ethanol L-ascorbic acid salt] | – | – | – | 65 to 90 | 68 to 82 | 2.5 to 4.8 | 1.6 to 2.9
CNCCC(Oc1ccc(CCO)cc1)c1ccccc1 (stereo not shown) [Example 8, 2-[4-[3-(Methylamino)-1-phenylpropoxy]phenyl]ethanol valproic acid salt] | – | – | – | – | – | 2.5 to 4.8 | 1.6 to 2.9
CNCCC(Oc1ccc(CCO)cc1)c1ccccc1 [Example 9, 2-[4-[3-(Methylamino)-1-phenylpropoxy]phenyl]ethanol (R)-lipoic acid salt] | – | – | – | – | – | 2.5 to 4.8 | 1.6 to 2.9
CNCCC(Oc1ccc(CCOC(C)=O)cc1)c1ccccc1 (stereo not shown) [Example 10, 4-[3-(Methylamino)-1-phenylpropoxy]phenethyl acetate hydrochloride] | 2.5 to 4.8 | 1.6 to 2.9 | 68 to 82 | 65 to 90 | – | – | –
CCCC(CCC)C(=O)N(C)CCC(Oc1ccc(CCO)cc1)c1ccccc1 (stereo not shown) [Example 11, N-[3-[4-(2-Hydroxyethyl)phenoxy]-3-phenylpropyl]-N-methyl-2-propylpentanamide] | 2.5 to 4.8 | 1.6 to 2.9 | 68 to 82 | 65 to 90 | – | – | –
CNCC[C@@H](Oc1ccc(CCO)cc1)c1cccs1 [Example 13, (R)-2-[4-[3-(Methylamino)-1-(thiophen-2-yl)propoxy]phenyl]ethanol] | 2.6 | 2.8 | 79 | 80 | – | – | –
CNCCC(Oc1ccc(CCCCO)cc1)c1ccccc1 (stereo not shown) [Example 14, 4-[4-[3-(Methylamino)-1-phenylpropoxy]phenyl]butan-1-ol hydrochloride] | 0.32 | 0.74 | 89 | 85 | – | – | –
CN(CCC(Oc1ccc(/C=C/CO)cc1)c1ccccc1)C(=O)OC(C)(C)C (stereo not shown) [Example 15, (E)-tert-Butyl [3-[4-(3-hydroxyprop-1-enyl)phenoxy]-3-phenylpropyl](methyl)carbamate] | 2.5 to 4.8 | 1.6 to 2.9 | 68 to 82 | 65 to 90 | – | – | –
CNCCC(Oc1ccc(CCCO)cc1)c1ccccc1 (stereo not shown) [Example 16, 3-[4-[3-(Methylamino)-1-phenylpropoxy]phenyl]propan-1-ol hydrochloride] | 2.36 | 0.46 | 78 | 90 | – | – | –
CNCCC(Oc1ccc(CO)cc1)c1ccccc1 (stereo not shown) [Example 17, [4-[3-(Methylamino)-1-phenylpropoxy]phenyl]methanol hydrochloride] | 0.42 | 0.13 | 97 | 94 | – | – | –
CNCCC(Oc1cc(CO)cc(CO)c1)c1ccccc1 (stereo not shown) [Example 19, [5-[3-(Methylamino)-1-phenylpropoxy]-1,3-phenylene]dimethanol hydrochloride] | 4.35 | 1.59 | 79 | 75 | – | – | –
